Read-outs that look alike come from different tables or passages of the source.
How the values were obtained:
tibial dyschondroplasia [1] = details: cited from earlier work; for tibial dyschondroplasia (effect of dietary factor): chickens, dietary level; for incidence of tibial dyschondroplasia: 20 ng/day, Edwards, J. Nutr. 114:1001 (1984)
[2] = 9-day body weight, feed consumption and gain:feed (Example 1); details: in words, Example 1
Procedure: Newly hatched Petersen X Arbor Acre cockerels obtained from a commercial hatchery were used. Animals were housed in electrically heated Petersime battery brooders with wire-mesh floors located in a room in which the temperature was maintained at 22° C., fluorescent lights were on 24 hours each day in the room and the cages, and sunlight was present during the day from large windows. No attempt was made to limit the natural production of vitamin D3. Feed and water were available to the chickens at all times.
Ten newly hatched birds were randomly placed in each section of the Petersime batteries until the birds were nine days old. The measurements described below were calculated on a pen basis; all statistical analyses were conducted on pen averages. Blood samples were taken by cardiac puncture with heparinized syringes from one randomly chosen bird from each pen on the ninth day before weighing the birds.
At nine days of age, pen body weights were obtained for all birds and their feed consumption was recorded. […] Briefly, using a three week old chicken as the reference animal, a score of zero indicates normal cartilage which is narrow with little irregularities. […] Deep irregularities are apparent. A score of three indicates a large mass of cartilage in the proximal end of the tibia. The birds were also scored for phosphorus deficient rickets at the same time they were scored for tibial dyschondroplasia. Chickens which had normal proliferating prehypertrophied zone and a lengthened metaphyseal primary spongiosa were classified as phosphorus deficient rickets. The left tibia was removed for bone ash determination on the fat-free bone.

[3] = 16-day body weight and gain:feed (Example 2); format: in vivo, chicken (Peterson X Arbor Acre cockerels); details: D3 […], derivatives 10 μg/kg feed
Procedure: The basal diet used is described above in Table 2. Disulfiram was added to the basal diet of some chickens as indicated in Table 10 at a level of 30 mg/kg of feed. […]

tibial dyschondroplasia [4] = format: in vivo, chicken (Peterson X Arbor Acre cockerels); details: for #3/total / #3/No. / % N2 + 3 / % N3 / % #3: D3 […], derivatives 10 μg/kg feed; for #3/No. / % N2 + 3 / % N3: Study 3; for incidence and severity of tibial dyschondroplasia: in words, Example 2
Procedure: Deep irregularities are apparent.
(§1) The basal diet used is described above in Table 2. Disulfiram was added to the basal diet of some chickens as indicated in Table 10 at a level of 30 mg/kg of feed.
(§2) After the tibia was scored for incidence and severity of tibial dyschondroplasia, the left tibia was removed for a bone ash determination on the fat-free dried bone.

bone ash [5] = assay: bone ash of left tibia (Example 1); details: in words
Description: The left tibia was removed for bone ash determination on the fat-free bone.

^47 Ca retention = assay: 47Ca absorption and retention (Example 2); format: in vivo, chicken (Peterson X Arbor Acre cockerels); design: key to ^47 Ca intercept / Ca^47 Ret.: % of administered 47Ca retained (y-intercept of retention-vs-days plot); details: for ^47 Ca intercept / ^47 Ca slope: Study 2; for ^47 Ca intercept / ^47 Ca slope / Ca^47 Ret. / Ca^47 slope: D3 […], derivatives 10 μg/kg feed; for Ca^47 Ret. / Ca^47 slope: Study 3
Procedure: Absorption and retention of dietary calcium was measured by orally dosing chicks with ^47 Ca and then measuring the total body radioactive count, as described in Suso and Edwards, "A Study of Techniques for Measuring ^65 Zn Absorption and Biological Half-life in the Chicken," Poult. Sci. 47:991-999 (1968). Specifically, ten seven day old birds in one pen under the indicated dietary treatments were dosed orally with 0.5 milliliter of water solution containing 0.5 microcuries of ^47 Ca and 0.1 to 1.0 micrograms of calcium. The total body radioactive content of the individual chickens was determined immediately following dosing, and also on days 7, 9, 12 and 14 following dosing. A plot of percent administered ^47 Ca which was retained versus number of days yields a line which has a slope corresponding to the half-life of the radioactive calcium in the chicken, and a y-intercept that corresponds to the amount of calcium absorbed by the chicken. Effect of vitamin D3 derivatives on Tibial Dyschondroplasia.

bone ash [6] = assay: bone ash (Example 2); format: in vivo, chicken (Peterson X Arbor Acre cockerels); details: in words
Procedure: as §1, §2

calcium = details: in vivo; cited from earlier work
[7] = Study 1, with disulfiram 30 mg/kg feed
[8] = Study 2, with disulfiram 30 mg/kg feed
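Wherever #3/No. is given: score 3 means a large cartilage mass in the proximal tibia.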
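Wherever #3/total is given: score 3 means a large cartilage mass in the proximal tibia.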
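Wherever % #3 is given: score 3 means a large cartilage mass in the proximal tibia.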
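Wherever % N3 is given: score 3 means a large cartilage mass in the proximal tibia.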

Compound	tibial dyschondroplasia (effect of dietary factor) (tibial dyschondroplasia [1])	16 Day wt. [3, 7]	Gain:Feed [3, 7]	16 day wt [3, 8]	Gain:Feed [3, 8]	16 Day Wt. ([3]; Study 3)	Gain/feed ([3]; Study 3)	16 Day wt. ([3]; Study 4)	Gain/feed ([3]; Study 4)	#3/total (tibial dyschondroplasia [4]; [8])	#3/No. (tibial dyschondroplasia [4])	% N2 + 3 (tibial dyschondroplasia [4]) [%]	% N3 (tibial dyschondroplasia [4]) [%]	#3/total (tibial dyschondroplasia [4]; Study 4)	% #3 (tibial dyschondroplasia [4]; Study 4) [%]	^47 Ca intercept (^47 Ca retention; with disulfiram 30 mg/kg feed)	^47 Ca slope (^47 Ca retention; with disulfiram 30 mg/kg feed)	Ca^47 Ret. (^47 Ca retention)	Ca^47 slope (^47 Ca retention)	incidence and severity of tibial dyschondroplasia (tibial dyschondroplasia [4])	further results
chloride	increased the incidence of the abnormality	–	–	–	–	–	–	–	–	–	–	–	–	–	–	–	–	–	–	–	–
calcium	retards development of the lesion	–	–	–	–	–	–	–	–	–	–	–	–	–	–	–	–	–	–	–	–
C=C1/C(=C\C=C2/CCC[C@]3(C)[C@@H]([C@H](C)CCCC(C)(C)O)CC[C@@H]23)C[C@@H](O)C[C@@H]1O [1,25-(OH)2 D3, 1,25-dihydroxycholecalciferol]	–	426	.701	377	.684	421	.66	355	.652	6/30	5/58	16	9	4/52	8	70	-2.11	78	-.72	–	nine day weight [2]: increased; incidence of tibial dyschondroplasia (tibial dyschondroplasia [1]): no effect on the incidence of tibial dyschondroplasia; 16 Day wt. ([3]; Study 1, basal diet): 421; Gain:Feed ([3]; Study 1, basal diet): .670; 16 day wt ([3]; Study 2, basal diet): 361; Gain:Feed ([3]; Study 2, basal diet): .661; #3/total (tibial dyschondroplasia [4]; Study 1, basal diet): 1/29; #3/total (tibial dyschondroplasia [4]; [7]): 4/30; #3/total (tibial dyschondroplasia [4]; Study 2, basal diet): 2/30; bone ash (bone ash [5]): increased; ^47 Ca intercept (^47 Ca retention; basal diet): 84; ^47 Ca slope (^47 Ca retention; basal diet): -2.85; dietary ^47 Ca absorbed (^47 Ca retention; in words, Example 2): significantly more dietary ^47 Ca absorbed; half-life, or retention, of the calcium (^47 Ca retention; in words, Example 2): increasing the half-life; bone ash (bone ash [6]): increases bone ash
CCN(CC)C(=S)SSC(=S)N(CC)CC [Disulfiram, bis(diethylthiocarbamyl)disulfide, reference compound]	–	433	.750	394	.671	–	–	–	–	14/28	–	–	–	–	–	73	-1.59	–	–	–	calcium absorption / loss (calcium): lowers the absorption of calcium; #3/total (tibial dyschondroplasia [4]; [7]): 16/30
C=C1/C(=C\C=C2/CCC[C@]3(C)[C@@H]([C@H](C)CCC(O)C(C)(C)O)CC[C@@H]23)C[C@@H](O)C[C@@H]1O (stereo partly shown) [1,24,25-(OH)2 D3, 1,24,25-trihydroxycholecalciferol]	–	–	–	–	–	428	.688	376	.681	–	6/60	22	10	8/57	14	–	–	76	-.77	significant reduction in the incidence of tibial dyschondroplasia	–
C=C1CC[C@H](O)C/C1=C/C=C1\CCC[C@]2(C)[C@@H]([C@H](C)CCC(O)C(C)(C)O)CC[C@@H]12 (stereo partly shown) [24,25-(OH)2 D3, 24,25-dihydroxycholecalciferol, reference compound]	–	–	–	–	–	424	.696	351	.663	–	17/59	53	29	25/56	46	–	–	67	-.77	not effective in preventing the development of tibial dyschondroplasia	nine day weight [2]: no effect; incidence of tibial dyschondroplasia (tibial dyschondroplasia [1]): no effect on the incidence of tibial dyschondroplasia; bone ash (bone ash [5]): no effect
C=C1/C(=C\C=C2/CCC[C@]3(C)[C@@H]([C@H](C)CCCC(C)C)CC[C@@H]23)C[C@@H](O)C[C@@H]1O [1-OHD3, 1-hydroxycholecalciferol]	–	–	–	–	–	423	.661	372	.655	–	3/60	17	5	8/57	15	–	–	75	-.95	significant reduction in the incidence of tibial dyschondroplasia	nine day weight [2]: increased; bone ash (bone ash [5]): increased
CN(C)C(=S)SSC(=S)N(C)C [thiruram, bis(dimethylthiocarbamyl)disulfide, reference compound]	causes tibial dyschondroplasia	–	–	–	–	–	–	–	–	–	–	–	–	–	–	–	–	–	–	–	calcium absorption / loss (calcium): rapid loss of intramuscularly-injected calcium
[2H]C([2H])([2H])C(O)(CCC[C@@H](C)[C@H]1CC[C@H]2/C(=C/C=C3/C[C@@H](O)C[C@H](O)C3=C)CCC[C@]12C)C([2H])([2H])[2H] [1,25-(OH)2-26,27[^1 H]6 D3, 1,25-dihydroxy-26,27-hexadeuterocholecalciferol]	–	–	–	–	–	422	.687	360	.646	–	0/60	8	0	4/58	7	–	–	80	.15	significant reduction in the incidence of tibial dyschondroplasia	–
C=C1/C(=C\C=C2/CCC[C@]3(C)[C@@H]([C@H](C)CC[C@@H](F)C(C)(C)O)CC[C@@H]23)C[C@@H](O)C[C@@H]1O [1,25-(OH)2-24R-FD3, 1,25-dihydroxy-24-fluorocholecalciferol]	–	–	–	–	–	413	.663	360	.661	–	3/60	15	5	9/56	16	–	–	72	-.47	significant reduction in the incidence of tibial dyschondroplasia	–
C=C1CC[C@H](O)C/C1=C/C=C1\CCC[C@]2(C)[C@@H]([C@H](C)CCCC(C)C)CC[C@@H]12 [D3, cholecalciferol, reference compound]	–	432	.708	374	.666	434	.709	383	.701	12/30	13/59	34	22	20/58	35	72	-1.97	75	-1.13	–	16 Day wt. ([3]; Study 1, basal diet): 451; Gain:Feed ([3]; Study 1, basal diet): .734; 16 day wt ([3]; Study 2, basal diet): 368; Gain:Feed ([3]; Study 2, basal diet): .647; #3/total (tibial dyschondroplasia [4]; Study 1, basal diet): 4/27; #3/total (tibial dyschondroplasia [4]; [7]): 9/27; #3/total (tibial dyschondroplasia [4]; Study 2, basal diet): 5/29; ^47 Ca intercept (^47 Ca retention; basal diet): 77; ^47 Ca slope (^47 Ca retention; basal diet): -1.88
C=C1CC[C@H](O)C/C1=C/C=C1\CCC[C@]2(C)[C@@H]([C@H](C)CCCC(C)(C)O)CC[C@@H]12 [25-OHD3, 25-hydroxycholecalciferol]	–	398	.706	395	.728	–	–	–	–	11/28	–	–	–	–	–	74	-1.67	–	–	reduced the incidence of tibial dyschondroplasia	16 Day wt. ([3]; Study 1, basal diet): 395; Gain:Feed ([3]; Study 1, basal diet): .667; 16 day wt ([3]; Study 2, basal diet): 392; Gain:Feed ([3]; Study 2, basal diet): .713; #3/total (tibial dyschondroplasia [4]; Study 1, basal diet): 1/28; #3/total (tibial dyschondroplasia [4]; Study 2, basal diet): 7/30; ^47 Ca intercept (^47 Ca retention; basal diet): 72
magnesium	decrease the incidence of tibial dyschondroplasia	–	–	–	–	–	–	–	–	–	–	–	–	–	–	–	–	–	–	–	–

Source: US5516525A, “Vitamin D derivative feed compositions and methods of use” (University of Georgia Research Foundation, Inc., priority 1994, dated 1996)
